According to PubChem BioAssay (NCI):
Values joined by “and” are separate entries in the source; they are usually repeats but may differ in a detail not shown here. Equal values may be shown once.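 In this assay, cells in 96-well plates receive the compound at five concentrations for 48 hours. Endpoints are linearly interpolated between the surrounding concentrations. GI50: concentration for 50% inhibition of growth. The concentration for full growth arrest is given as TGI.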 Where a SMILES comes first, the peptide text is derived from it. [ ]: non-standard residue; d: D form. The star is where a group is joined. ξ: configuration not given here. X16 = COC1=CC(=O)N(C(=O)C(O*)C(C)C)C1Cc1ccccc1; ξNMe2Val = CC(C)C(C(=O)*)N(C)C; NMeV = CN[CH](C(=O)O)C(C)C

Columns and labels:
Assay in all cases: growth of human tumour cells (NCI), 48 h
CAKI-1 renal = tested on: CAKI-1 renal
COLO 205 colon = tested on: COLO 205 colon
DU-145 prostate = tested on: DU-145 prostate
HCC-2998 colon = tested on: HCC-2998 colon
IGROV1 ovarian = tested on: IGROV1 ovarian
MCF7 breast = tested on: MCF7 breast
NCI-H23 lung = tested on: NCI-H23 lung
SF-295 CNS = tested on: SF-295 CNS
SK-OV-3 ovarian = tested on: SK-OV-3 ovarian
UO-31 renal = tested on: UO-31 renal

Compound | TGI (CAKI-1 renal) [µM] | TGI (COLO 205 colon) | TGI (DU-145 prostate) [µM] | TGI (HCC-2998 colon) [µM] | TGI (IGROV1 ovarian) [µM] | TGI (MCF7 breast) [µM] | TGI (NCI-H23 lung) [µM] | TGI (SF-295 CNS) | TGI (SK-OV-3 ovarian) [µM] | TGI (UO-31 renal) [µM] | GI50 (CAKI-1 renal) [µM] | GI50 (COLO 205 colon) [µM] | GI50 (HCC-2998 colon) [µM] | GI50 (IGROV1 ovarian) [µM] | GI50 (MCF7 breast) [µM] | GI50 (NCI-H23 lung) [µM] | GI50 (SF-295 CNS) [µM] | GI50 (SK-OV-3 ovarian) [µM] | GI50 (UO-31 renal) [µM] | GI50 (DU-145 prostate) [µM]
C=C(NC(=O)C(=C)NC(=O)c1csc(C2=NC3c4csc(n4)C4NC(=O)c5csc(n5)C(C(C)(O)C(C)O)NC(=O)C5CSC(=N5)/C(=C/C)NC(=O)C(C(C)O)NC(=O)c5csc(n5)C3(CC2)NC(=O)C(C)NC(=O)C(=C)NC(=O)C(=C)NC(=O)C(C(C)C)NC2C=Cc3c(C(C)O)cc(nc3C2O)C(=O)OC4C)n1)C(N)=O (configuration not stated) | > 87.2 | > 100 µM | > 72.4 | > 58.1 | 58.9 | > 26 | > 62.6 | > 100 µM | > 63.4 | > 100 |  |  |  |  |  |  |  |  |  | 
CCC1(O)C=CC(=O)C=C1 | > 100 | > 100 µM | > 64.4 | > 100 | 40.6 | > 100 | 69.3 | > 100 µM | > 100 | 36.7 |  |  |  |  |  |  |  |  |  | 
O=c1c2cc([N+](=O)[O-])ccc2n2n1Cc1ccccc1CC2 | > 100 | > 100 µM | > 100 | > 100 | > 100 | > 100 | > 100 | > 100 µM | > 100 | > 100 |  |  |  |  |  |  |  |  |  | 
O=C(Cc1ccc(Cl)c(Cl)c1)NCCCN1CCN(CCCN2CCCCC2)CC1 | 41.3 | 29.8 µM | > 100 | 9.92 | 75 | 34.2 | 42.6 | 37.7 µM | 40.8 | 3.63 |  |  |  |  |  |  |  |  |  | 
O=S(=O)(O)c1ccc(NN(c2c(O)ccc3ccccc23)S(=O)(=O)O)cc1 | > 100 | > 100 µM | > 100 | > 100 | > 100 | > 100 | > 100 | > 100 µM | > 100 | > 100 |  |  |  |  |  |  |  |  |  | 
COc1ccc(-n2sc3ncc(-c4ccccc4)cc3c2=O)cc1 | 67.3 | > 100 µM | > 100 | > 100 | 78.8 | > 100 | 53.3 | > 100 µM | > 100 | 49.7 |  |  |  |  |  |  |  |  |  | 
c1cc(-c2cscc2-c2ccsc2)cs1 | > 100 | > 100 µM | > 100 | 91.8 | > 100 | > 100 | > 100 | > 100 µM | > 100 | > 100 |  |  |  |  |  |  |  |  |  | 
Nc1c(Br)cc(-c2cc(Br)c(N)c(Br)c2)cc1Br | > 100 | > 100 µM | > 100 | > 100 | > 100 | > 100 | > 100 | > 100 µM | > 100 | > 100 |  |  |  |  |  |  |  |  |  | 
COc1ccc(C2SCC(=O)N2N=C2NC(=O)CC(=O)N2)cc1 (configuration not stated) | > 100 | > 100 µM | > 100 | > 100 | > 100 | > 100 | > 100 | > 100 µM | > 100 | > 100 |  |  |  |  |  |  |  |  |  | 
COc1ccc(-n2c(CCCC(=O)O)nc3c2C(=O)c2ccccc2C3=O)cc1 | > 100 | > 100 µM | > 100 | > 100 | > 100 | > 100 | > 100 | > 100 µM | > 100 | > 100 |  |  |  |  |  |  |  |  |  | 
COC1/C=C\C=C(/C)C(=O)NC2=CC(=O)C(NCCCl)=C(CC(C)CC(OC)C(O)C(C)/C=C(/C)C1OC(N)=O)C2=O (configuration not stated) | 8.67 | 1.2 µM | 11.4 | 1 | 13.6 | 2.19 | 1.27 | 8.39 µM | 2.11 | 10.6 |  |  |  |  |  |  |  |  |  | 
COc1ccc2c(c1O)-c1c(OC)c(OC)cc3c1[C@H](C2)[N+](C)(C)CC3 | > 100 | > 100 µM | > 100 | > 100 | > 100 | > 100 | > 100 | > 100 µM | > 100 | > 100 |  |  |  |  |  |  |  |  |  | 
CC(=O)N[C@@H](Cc1ccc(O)cn1)C(=O)NCc1cccc(F)c1 | > 100 | > 100 µM | > 100 | > 100 | > 100 | > 100 | > 100 | > 100 µM | > 100 | > 100 |  |  |  |  |  |  |  |  |  | 
O=C1N[C@H]2c3c(Cl)sc(Cl)c3C(=O)[C@H]2O1 | 49.5 | > 51 µM | > 54.6 | 19.9 | 14.4 | > 100 | 29 | 34.6 µM | 52.1 | 38.3 |  |  |  |  |  |  |  |  |  | 
COC(=O)Cc1c([C@@H]2Nc3ccccc3[C@H]2CC(=O)OC)[nH]c2ccccc12 | > 100 | 34.8 µM | > 100 | > 100 | > 100 | > 100 | > 100 | > 100 µM | > 100 | 81.6 |  |  |  |  |  |  |  |  |  | 
C[N+]1(C)CC=C(N2CCOCC2)CC1 | > 10 | > 10 µM | > 10 | > 10 | > 10 | > 10 | > 10 | > 10 µM | > 10 | > 10 |  |  |  |  |  |  |  |  |  | 

Compound | TGI (CAKI-1 renal) [µM] | TGI (COLO 205 colon) | TGI (DU-145 prostate) [µM] | TGI (HCC-2998 colon) [µM] | TGI (IGROV1 ovarian) [µM] | TGI (MCF7 breast) [µM] | TGI (NCI-H23 lung) [µM] | TGI (SF-295 CNS) | TGI (SK-OV-3 ovarian) [µM] | TGI (UO-31 renal) [µM] | GI50 (CAKI-1 renal) [µM] | GI50 (COLO 205 colon) [µM] | GI50 (HCC-2998 colon) [µM] | GI50 (IGROV1 ovarian) [µM] | GI50 (MCF7 breast) [µM] | GI50 (NCI-H23 lung) [µM] | GI50 (SF-295 CNS) [µM] | GI50 (SK-OV-3 ovarian) [µM] | GI50 (UO-31 renal) [µM] | GI50 (DU-145 prostate) [µM]
[N-]=N[N+]#I1OC(C(F)(F)F)(C(F)(F)F)c2ccccc21 | 20.9 | 27 µM | 38 | 31.8 | 32.7 | 27.3 | 36.8 | 31.2 µM | 58.8 | 23.7 |  |  |  |  |  |  |  |  |  | 
NC1=CN(CCCO)C2=N/C(=C\c3ccco3)C(=O)N12 | > 100 | > 100 µM | > 100 | > 100 | > 100 | > 100 | > 100 | > 100 µM | > 100 | > 100 |  |  |  |  |  |  |  |  |  | 
CCOC(=O)c1nc2c3c(ncn2n1)Oc1c(c(-c2ccccc2)nn1-c1ccccc1)C3c1ccc(OC)c(OC)c1 (configuration not stated) | > 100 | > 100 µM | > 100 | > 100 | > 100 | > 100 | > 100 | > 100 µM | > 100 | > 100 |  |  |  |  |  |  |  |  |  | 
CN(C)CC1CCC/C(=C\c2ccc(N(C)C)cc2)C1=O (configuration not stated) | 3.3 | 6.65 µM | 34 | 29.4 | 11.8 | 2.82 | 28.7 | 32.2 µM | 31.7 | 22.2 |  |  |  |  |  |  |  |  |  | 
O=[N+]([O-])/C(C(Cl)=C(Cl)Cl)=C1\Nc2ccccc2O1 | > 100 | > 100 µM | > 100 | > 100 | > 100 | > 100 | > 100 | > 100 µM | > 100 | 30.6 |  |  |  |  |  |  |  |  |  | 
COC1=CC(=O)N(C(=O)C(OC(=O)C2CCCN2C(=O)C2CCCN2C(=O)C(C(C)C)N(C)C(=O)C(NC(=O)C(C(C)C)N(C)C)C(C)C)C(C)C)C1Cc1ccccc1 (configuration not stated) (ξNMe2Val-V[NMeV]PP-X16; configuration not given here) | > 4 | 0.00838 µM and 0.0415 µM | 0.00455 |  | > 4 | > 4 | 0.0145 | 0.0074 µM and 0.00436 µM |  | > 4 | < 0.0004 | < 0.0004 | < 0.0004 | < 0.0004 | < 0.0004 | < 0.0004 | < 0.0004 | 0.0042 | > 4 | 
Cc1c2c(n3c(nc4ccccc43)c1C#N)N(c1ccc(Cl)cc1)CC2 | > 100 | > 100 µM | > 100 | > 100 | > 100 | > 100 | > 100 | > 100 µM | > 100 | > 100 |  |  |  |  |  |  |  |  |  | 
CCOC(=O)C1(Cc2ccc(C)cc2)Cc2ccc(C)cc2C1=O (configuration not stated) | > 100 | > 78.7 µM | > 100 | > 92.7 | > 100 | 28.3 | > 94.7 | > 86.5 µM | > 100 | > 100 |  |  |  |  |  |  |  |  |  | 
O=C(NCc1cn(Cc2cccc(Oc3ccccc3)c2)nn1)c1cccnc1Nc1ccccc1 | > 100 | 5.75 µM | 33.8 | 21.8 | > 100 | > 100 | > 100 | > 100 µM | 15.1 | > 100 | 5.45 | 2.79 | 3.7 | 5.86 | 3.67 | 3.73 | 3.69 | 3.79 | 2.49 | 3.94
O=C1CC(NC(=O)C(F)(F)F)c2c(Br)sc(N3CCC(c4ccccc4)CC3)c21 (configuration not stated) | 43.8 | > 100 µM | > 100 | > 100 | > 100 | > 100 | > 100 | 28.7 µM | > 100 | > 100 |  |  |  |  |  |  |  |  |  | 
N#CI1OC(=O)c2ccccc21 | > 100 | > 100 µM | > 100 | > 100 | > 100 | > 100 | > 100 | > 100 µM | > 100 | > 100 |  |  |  |  |  |  |  |  |  | 
N#CC(c1ccc(O)cc1)N1CCN(C(C#N)c2ccc(O)cc2)CC1 (configuration not stated) | > 100 | > 100 µM | > 91.5 | > 100 | > 100 | > 100 | > 100 | > 100 µM | > 100 | > 100 |  |  |  |  |  |  |  |  |  | 
COc1ccc(CN2C(=O)CCC/C=C\[C@H]2CI)cc1 | 21.9 | 26.9 µM | 26 | 23.8 | 29 | 22.5 | 28.7 | 26.3 µM | 30 | 23.8 |  |  |  |  |  |  |  |  |  | 
C1=C2SSC3=CC=C(SSc4ccc(s4)SSC4=CC=C(SSC(=C1)S2)S4)S3 | > 100 | > 100 µM | > 100 | > 100 | > 100 | > 100 | > 100 | > 100 µM | > 100 | > 100 |  |  |  |  |  |  |  |  |  | 
CC1(C)CCc2c(cc3c(c2O)CCC(C)(C)O3)O1 | > 100 | > 100 µM | > 100 | > 100 | > 100 | > 100 | > 100 | > 100 µM | > 100 | > 100 |  |  |  |  |  |  |  |  |  | 
O=C1Nc2ccccc2C(=O)OC(Cc2ccccc2)=Nc2ccccc21 | > 100 | > 100 µM | > 100 | > 100 | > 100 | > 100 | > 100 | > 100 µM | > 100 | > 100 |  |  |  |  |  |  |  |  |  | 
